Results on one molecule are retold here after ChEMBL document CHEMBL1649521, “Influence of the cytochrome P450 2B6 genotype on population pharmacokinetics of efavirenz in human immunodeficiency virus patients” (Antimicrob Agents Chemother, 2009).

Data set [1] is described as follows: Apparent oral clearance in patient with HIV infection at 600 mg/kg, […] QD. The data set is classed as ADME, organism-based. Set-up: dose 600 mg/kg, route oral. Conditions: human, in vivo.
Data set [2] is described as follows: Apparent oral volume of distribution in patient with HIV infection at 600 mg/kg QD. Format: ADME, organism-based. Set-up: dose 600 mg/kg, route oral. Conditions: human, in vivo, read-out: Vc/F.

A word on the CL/F: it is the apparent clearance, not corrected for the fraction that reaches the circulation. As to `O=C1Nc2ccc(Cl)cc2[C@@](C#CC2CC2)(C(F)(F)F)O1` [EFAVIRENZ], the CL/F in data set [1] was 154 mL/min. For the same molecule, in data set [2], the Vd/F turned out to be 295 L.
